Source: article PMC5943490, “Altered Expression of the Malate-Permeable Anion Channel OsALMT4 Reduces the Growth of Rice Under Low Radiance” (Frontiers in Plant Science, 2018)

What was measured:
OsALMT4 [1] = target: T1, OsALMT4 (Oryza sativa, UniProt Q0JPI1); assay: malate efflux from intact OX5 seedlings, concentration series; conditions: read-out: Ki (half maximum inhibition)
T1 construct: gene Os01g0221600; full-length, constitutively over-expressed in transgenic rice (homozygous line OX5)
T1 sequence (Q0JPI1 1-524): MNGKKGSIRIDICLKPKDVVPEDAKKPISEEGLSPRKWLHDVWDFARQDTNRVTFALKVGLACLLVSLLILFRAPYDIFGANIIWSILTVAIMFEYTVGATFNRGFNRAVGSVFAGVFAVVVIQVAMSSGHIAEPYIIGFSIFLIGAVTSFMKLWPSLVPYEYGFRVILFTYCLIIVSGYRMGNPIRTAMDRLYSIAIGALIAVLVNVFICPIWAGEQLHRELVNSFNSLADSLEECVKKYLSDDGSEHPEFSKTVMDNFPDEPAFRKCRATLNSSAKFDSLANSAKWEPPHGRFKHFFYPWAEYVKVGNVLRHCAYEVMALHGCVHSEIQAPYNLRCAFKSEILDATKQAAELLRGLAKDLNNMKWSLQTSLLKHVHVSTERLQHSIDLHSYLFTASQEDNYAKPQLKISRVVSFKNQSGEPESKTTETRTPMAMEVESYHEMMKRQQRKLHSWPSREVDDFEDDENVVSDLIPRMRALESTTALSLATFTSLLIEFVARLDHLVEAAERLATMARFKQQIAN

OsALMT4 [2] = target: T1, OsALMT4; assay: malate efflux from intact OX5 and OX5_null seedlings; conditions: pH 5.6; transported anion, stereo not told
OsALMT4 [3] = target: T1, OsALMT4; assay: malate efflux from intact OX5 seedlings; conditions: read-out: malate efflux, % of control at 100 μM

O=C(O)c1ccccc1O [SA, salicylic acid]
IC50 (OsALMT4 [1]): 25 µM

O=C(O)C[C@H](O)C(=O)O [malate]
malate efflux from intact OX5 and OX5_null seedlings (OsALMT4 [2]): SA treatment effectively inhibited malate efflux via OsALMT4 in the transgenic OX lines

O=C(O)c1cccnc1Nc1cccc(C(F)(F)F)c1 [niflumate]
remaining activity at 100 µM (OsALMT4 [3]): < 20%
